Data published in US9695155B2, “Herbicidal substituted pyrimidinyloxy benzene compounds” (E. I. DU PONT DE NEMOURS AND COMPANY, priority 2013, dated 2017).

Legend:
[1] = tested on: barnyardgrass; assay: Test E postemergence; type: in vivo, Echinochloa crus-galli
Procedure, shortened: (§1)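 Compound in a non-phytotoxic solvent mixture with surfactant was applied preemergence to seeds in silt loam soil, or postemergence to plants 2 to 18 cm tall grown in peat-based potting medium. Plants were kept in a greenhouse for 14 to 21 days, then rated visually against untreated controls on a 0 (no effect) to 100 (complete control) scale.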

[2] = tested on: sedge, umbrella; assay: Test C flooded paddy test; type: in vivo, Cyperus difformis; details: Flood, scale 0 to 100 (0 no effect, 100 complete control), 13 to 15 days
Procedure, shortened: (§2)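 Test compounds are applied straight into paddy water held 3 cm above the soil surface, with that flood maintained for the whole test. After 13 to 15 days in the greenhouse, each species is scored visually relative to controls.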

[3] = tested on: johnsongrass; assay: Test E preemergence; type: in vivo, Sorghum halepense; details: for Johnsongrass plant response rating: scale 0 to 100 (0 no effect, 100 complete control); for Plant response rating, Johnsongrass: scale 0 to 100, 0 no effect, 100 complete control
Procedure, shortened: as §1

[4] = tested on: dayflower; assay: Test E postemergence; type: in vivo, Commelina virginica
Procedure, shortened: as §1

[5] = tested on: rice; assay: Test C flooded paddy test; type: in vivo, Oryza sativa; details: Flood, scale 0 to 100 (0 no effect, 100 complete control), 13 to 15 days
Procedure, shortened: as §2

[6] = tested on: velvetleaf; assay: Test E preemergence; type: in vivo, Abutilon theophrasti; details: for Velvetleaf plant response rating: scale 0 to 100 (0 no effect, 100 complete control); for Plant response rating, Velvetleaf: scale 0 to 100, 0 no effect, 100 complete control
Procedure, shortened: as §1

[7] = tested on: fall panicum; assay: Test E preemergence; type: in vivo, Panicum dichotomiflorum; details: for Panicum, Fall plant response rating: scale 0 to 100 (0 no effect, 100 complete control); for Plant response rating, Panicum, Fall: scale 0 to 100, 0 no effect, 100 complete control
Procedure, shortened: as §1

[8] = tested on: soybean; assay: Test E postemergence; type: in vivo, Glycine max
Procedure, shortened: as §1

[9] = tested on: corn; assay: Test E preemergence; type: in vivo, Zea mays; details: for Corn plant response rating: scale 0 to 100 (0 no effect, 100 complete control); for Plant response rating, Corn: scale 0 to 100, 0 no effect, 100 complete control
Procedure, shortened: as §1

[10] = tested on: Italian ryegrass; assay: Test E postemergence; type: in vivo, Lolium multiflorum
Procedure, shortened: as §1

[11] = tested on: soybean; assay: Test E preemergence; type: in vivo, Glycine max; details: for Soybean plant response rating: scale 0 to 100 (0 no effect, 100 complete control); for Plant response rating, Soybean: scale 0 to 100, 0 no effect, 100 complete control
Procedure, shortened: as §1

[12] = tested on: field bindweed; assay: Test E preemergence; type: in vivo, Convolvulus arvensis; details: for Field Bindweed plant response rating: scale 0 to 100 (0 no effect, 100 complete control); for Plant response rating, Field Bindweed: scale 0 to 100, 0 no effect, 100 complete control
Procedure, shortened: as §1

[13] = tested on: dayflower; assay: Test E preemergence; type: in vivo, Commelina virginica; details: for Dayflower, VA plant response rating: scale 0 to 100 (0 no effect, 100 complete control); for Plant response rating, Dayflower, VA: scale 0 to 100, 0 no effect, 100 complete control
Procedure, shortened: as §1

[14] = tested on: barnyardgrass; assay: Test C flooded paddy test; type: in vivo, Echinochloa crus-galli; details: Flood, scale 0 to 100 (0 no effect, 100 complete control), 13 to 15 days
Procedure, shortened: as §2

[15] = tested on: waterhemp_RES2 (ALS & HPPD resistant common waterhemp); assay: Test E postemergence; type: in vivo, Amaranthus rudis
Procedure, shortened: as §1

[16] = tested on: waterhemp_RES1 (ALS & Triazine resistant common waterhemp); assay: Test E postemergence; type: in vivo, Amaranthus rudis
Procedure, shortened: as §1

[17] = tested on: yellow nutsedge; assay: Test E preemergence; type: in vivo, Cyperus esculentus; details: for Nutsedge, Yellow plant response rating: scale 0 to 100 (0 no effect, 100 complete control); for Plant response rating, Nutsedge, Yellow: scale 0 to 100, 0 no effect, 100 complete control
Procedure, shortened: as §1

[18] = tested on: ragweed; assay: Test E preemergence; type: in vivo, Ambrosia elatior; details: for Ragweed plant response rating: scale 0 to 100 (0 no effect, 100 complete control); for Plant response rating, Ragweed: scale 0 to 100, 0 no effect, 100 complete control
Procedure, shortened: as §1

[19] = Postemergence, 31 g ai/ha, scale 0 to 100
[20] = Postemergence, 62 g ai/ha, scale 0 to 100
[21] = Postemergence, 125 g ai/ha, scale 0 to 100
[22] = Postemergence, 250 g ai/ha, scale 0 to 100
[23] = postemergence, 16 g ai/ha, scale 0 to 100, 0 no effect, 100 complete control

## N#Cc1cnn(-c2c(C#N)cccc2Oc2ncc(Cl)cn2)c1 [Compound 200]
[1]; [19]
  Plant response rating, Barnyardgrass: 0
[1]; [20]
  Plant response rating, Barnyardgrass: 0
[1]; [21]
  Plant response rating, Barnyardgrass: 20
[1]; [22]
  Plant response rating, Barnyardgrass: 40
[1]; [23]
  Plant response rating, Barnyardgrass: 0
[2]; 31 g ai/ha
  Plant response rating, Sedge, Umbrella: 0
[2]; 62 g ai/ha
  Plant response rating, Sedge, Umbrella: 80
[2]; 125 g ai/ha
  Plant response rating, Sedge, Umbrella: 90
[2]; 250 g ai/ha
  Plant response rating, Sedge, Umbrella: 90
[3]; 31 g ai/ha
  Johnsongrass plant response rating: 15
[3]; 62 g ai/ha
  Johnsongrass plant response rating: 25
[3]; 125 g ai/ha
  Plant response rating, Johnsongrass: 30
[3]; 250 g ai/ha
  Plant response rating, Johnsongrass: 75
[4]; [19]
  Plant response rating, Dayflower, VA: 25
[4]; [20]
  Plant response rating, Dayflower, VA: 40
[4]; [21]
  Plant response rating, Dayflower, VA: 60
[4]; [22]
  Plant response rating, Dayflower, VA: 70
[4]; [23]
  Plant response rating, Dayflower, VA: 15
[5]; 31 g ai/ha
  Plant response rating, Rice: 0
[5]; 62 g ai/ha
  Plant response rating, Rice: 0
[5]; 125 g ai/ha
  Plant response rating, Rice: 0
[5]; 250 g ai/ha
  Plant response rating, Rice: 0
[6]; 31 g ai/ha
  Velvetleaf plant response rating: 35
[6]; 62 g ai/ha
  Velvetleaf plant response rating: 80
[6]; 125 g ai/ha
  Plant response rating, Velvetleaf: 100
[6]; 250 g ai/ha
  Plant response rating, Velvetleaf: 100
[7]; 31 g ai/ha
  Panicum, Fall plant response rating: 75
[7]; 62 g ai/ha
  Panicum, Fall plant response rating: 95
[7]; 125 g ai/ha
  Plant response rating, Panicum, Fall: 100
[7]; 250 g ai/ha
  Plant response rating, Panicum, Fall: 100
[8]; [19]
  Plant response rating, Soybean: 95
[8]; [20]
  Plant response rating, Soybean: 95
[8]; [21]
  Plant response rating, Soybean: 95
[8]; [22]
  Plant response rating, Soybean: 98
[8]; [23]
  Plant response rating, Soybean: 95
[9]; 16 g ai/ha
  Corn plant response rating: 0
[9]; 31 g ai/ha
  Corn plant response rating: 5
[9]; 62 g ai/ha
  Corn plant response rating: 30
[9]; 125 g ai/ha
  Plant response rating, Corn: 30
[9]; 250 g ai/ha
  Plant response rating, Corn: 75
[10]; [19]
  Plant response rating, Ryegrass, Italian: 0
[10]; [20]
  Plant response rating, Ryegrass, Italian: 0
[10]; [21]
  Plant response rating, Ryegrass, Italian: 0
[10]; [22]
  Plant response rating, Ryegrass, Italian: 0
[10]; [23]
  Plant response rating, Ryegrass, Italian: 0
[11]; 31 g ai/ha
  Soybean plant response rating: 25
[11]; 62 g ai/ha
  Soybean plant response rating: 35
[11]; 125 g ai/ha
  Plant response rating, Soybean: 65
[11]; 250 g ai/ha
  Plant response rating, Soybean: 90
[12]; 16 g ai/ha
  Field Bindweed plant response rating: 5
[12]; 31 g ai/ha
  Field Bindweed plant response rating: 10
[12]; 62 g ai/ha
  Field Bindweed plant response rating: 40
[12]; 125 g ai/ha
  Plant response rating, Field Bindweed: 70
[12]; 250 g ai/ha
  Plant response rating, Field Bindweed: 95
[13]; 16 g ai/ha
  Dayflower, VA plant response rating: 0
[13]; 31 g ai/ha
  Dayflower, VA plant response rating: 35
[13]; 62 g ai/ha
  Dayflower, VA plant response rating: 65
[13]; 125 g ai/ha
  Plant response rating, Dayflower, VA: 65
[13]; 250 g ai/ha
  Plant response rating, Dayflower, VA: 85
[14]; 31 g ai/ha
  Plant response rating, Barnyardgrass: 0
[14]; 62 g ai/ha
  Plant response rating, Barnyardgrass: 0
[14]; 125 g ai/ha
  Plant response rating, Barnyardgrass: 0
[14]; 250 g ai/ha
  Plant response rating, Barnyardgrass: 25
[15]; [19]
  Plant response rating, Waterhemp_RES2: 90
[15]; [20]
  Plant response rating, Waterhemp_RES2: 90
[15]; [21]
  Plant response rating, Waterhemp_RES2: 100
[15]; [22]
  Plant response rating, Waterhemp_RES2: 100
[15]; [23]
  Plant response rating, Waterhemp_RES2: 90
[16]; [19]
  Plant response rating, Waterhemp_RES1: 80
[16]; [20]
  Plant response rating, Waterhemp_RES1: 90
[16]; [21]
  Plant response rating, Waterhemp_RES1: 100
[16]; [22]
  Plant response rating, Waterhemp_RES1: 100
[16]; [23]
  Plant response rating, Waterhemp_RES1: 70
[17]; 31 g ai/ha
  Nutsedge, Yellow plant response rating: 0
[17]; 62 g ai/ha
  Nutsedge, Yellow plant response rating: 0
[17]; 125 g ai/ha
  Plant response rating, Nutsedge, Yellow: 40
[17]; 250 g ai/ha
  Plant response rating, Nutsedge, Yellow: 70
[18]; 31 g ai/ha
  Ragweed plant response rating: 0
[18]; 62 g ai/ha
  Ragweed plant response rating: 80
[18]; 125 g ai/ha
  Plant response rating, Ragweed: 80
[18]; 250 g ai/ha
  Plant response rating, Ragweed: 95
